From ChEMBL document CHEMBL4715780, “Biological evaluation of tetracationic compounds based on two 1,4-diazabicyclo[2.2.2]octane moieties connected by different linkers” (Bioorg Med Chem, 2016)

How the values were obtained:
Format in all cases: functional
Staphylococcus aureus [1] = assay: Antibacterial activity against methicillin-resistant Staphylococcus aureus CEMTC 707 assessed as bacterial growth inhibition by CLSI protocol based serial microdilution method
Salmonella typhimurium [2] = assay: Antibacterial activity against Salmonella enterica ATCC 14028 assessed as bacterial growth inhibition by CLSI protocol based serial microdilution method; conditions: Salmonella enterica subsp. enterica serovar Typhimurium
Citrobacter freundii [3] = assay: Antibacterial activity against Citrobacter freundii ATCC 8090 assessed as bacterial growth inhibition by CLSI protocol based serial microdilution method
Staphylococcus aureus [4] = assay: Antibacterial activity against […] Staphylococcus aureus ATCC 25923 assessed as concentration required to inhibit visible growth by CLSI protocol based serial microdilution method
Staphylococcus aureus [5] = assay: Antibacterial activity against methicillin-resistant Staphylococcus aureus CEMTC 1732 assessed as bacterial growth inhibition by CLSI protocol based serial microdilution method
Enterococcus faecalis [6] = assay: Antibacterial activity against Enterococcus faecalis ATCC 51299 assessed as concentration required to inhibit visible growth by CLSI protocol based serial microdilution method
Pseudomonas aeruginosa [7] = assay: Antibacterial activity against Pseudomonas aeruginosa ATCC 9027 assessed as bacterial growth inhibition by CLSI protocol based serial microdilution method
Enterococcus faecalis [8] = assay: Antibacterial activity against Enterococcus faecalis ATCC 51299 assessed as bacterial growth inhibition by CLSI protocol based serial microdilution method
Escherichia coli [9] = assay: Antibacterial activity against Escherichia coli ATCC 25922 assessed as concentration required to inhibit visible growth by CLSI protocol based serial microdilution method
Staphylococcus aureus [10] = assay: Antibacterial activity against methicillin-resistant Staphylococcus aureus CEMTC 675 assessed as concentration required to inhibit visible growth by CLSI protocol based serial microdilution method
Pseudomonas aeruginosa [11] = assay: Antibacterial activity against Pseudomonas aeruginosa ATCC 9027 assessed as concentration required to inhibit visible growth by CLSI protocol based serial microdilution method
Staphylococcus aureus [12] = assay: Antibacterial activity against methicillin-resistant Staphylococcus aureus CEMTC 1732 assessed as concentration required to inhibit visible growth by CLSI protocol based serial microdilution method
Citrobacter freundii [13] = assay: Antibacterial activity against Citrobacter freundii ATCC 8090 assessed as concentration required to inhibit visible growth by CLSI protocol based serial microdilution method
Escherichia coli [14] = assay: Antibacterial activity against Escherichia coli ATCC 25922 assessed as bacterial growth inhibition by CLSI protocol based serial microdilution method
Staphylococcus aureus [15] = assay: Antibacterial activity against methicillin-resistant Staphylococcus aureus CEMTC 1733 assessed as bacterial growth inhibition by CLSI protocol based serial microdilution method
Proteus vulgaris [16] = assay: Antibacterial activity against Proteus vulgaris ATCC 6380 assessed as concentration required to inhibit visible growth by CLSI protocol based serial microdilution method
Proteus vulgaris [17] = assay: Antibacterial activity against Proteus vulgaris ATCC 6380 assessed as bacterial growth inhibition by CLSI protocol based serial microdilution method
Staphylococcus aureus [18] = assay: Antibacterial activity against […] Staphylococcus aureus ATCC 25923 assessed as bacterial growth inhibition by CLSI protocol based serial microdilution method
Staphylococcus aureus [19] = assay: Antibacterial activity against methicillin-resistant Staphylococcus aureus CEMTC 675 assessed as bacterial growth inhibition by CLSI protocol based serial microdilution method
Staphylococcus aureus [20] = assay: Antibacterial activity against methicillin-resistant Staphylococcus aureus CEMTC 1695 assessed as bacterial growth inhibition by CLSI protocol based serial microdilution method
Staphylococcus aureus [21] = assay: Antibacterial activity against methicillin-resistant Staphylococcus aureus CEMTC 1733 assessed as concentration required to inhibit visible growth by CLSI protocol based serial microdilution method
Staphylococcus aureus [22] = assay: Antibacterial activity against methicillin-resistant Staphylococcus aureus CEMTC 1850 assessed as bacterial growth inhibition by CLSI protocol based serial microdilution method
Salmonella typhimurium [23] = assay: Antibacterial activity against Salmonella enterica ATCC 14028 assessed as concentration required to inhibit visible growth by CLSI protocol based serial microdilution method; conditions: Salmonella enterica subsp. enterica serovar Typhimurium
Staphylococcus aureus [24] = assay: Antibacterial activity against methicillin-resistant Staphylococcus aureus CEMTC 707 assessed as concentration required to inhibit visible growth by CLSI protocol based serial microdilution method
Staphylococcus aureus [25] = assay: Antibacterial activity against methicillin-resistant Staphylococcus aureus CEMTC 1850 assessed as concentration required to inhibit visible growth by CLSI protocol based serial microdilution method
Staphylococcus aureus [26] = assay: Antibacterial activity against methicillin-resistant Staphylococcus aureus CEMTC 1695 assessed as concentration required to inhibit visible growth by CLSI protocol based serial microdilution method

GENTAMICIN
MIC (Staphylococcus aureus [1]): 1 µg/mL | MIC (Salmonella typhimurium [2]): 0.8 µg/mL | MIC (Citrobacter freundii [3]): 0.4 µg/mL | MBC (Staphylococcus aureus [4]): 100 µg/mL | MIC (Staphylococcus aureus [5]): > 100 µg/mL | MBC (Enterococcus faecalis [6]): 100 µg/mL | MIC (Pseudomonas aeruginosa [7]): > 400 µg/mL | MIC (Enterococcus faecalis [8]): 50 µg/mL | MBC (Escherichia coli [9]): 100 µg/mL | MBC (Staphylococcus aureus [10]): > 100 µg/mL | MBC (Pseudomonas aeruginosa [11]): > 400 µg/mL | MBC (Staphylococcus aureus [12]): > 100 µg/mL | MBC (Citrobacter freundii [13]): 0.8 µg/mL | MIC (Escherichia coli [14]): 50 µg/mL | MIC (Staphylococcus aureus [15]): 1 µg/mL | MBC (Proteus vulgaris [16]): 1.6 µg/mL | MIC (Proteus vulgaris [17]): 0.8 µg/mL | MIC (Staphylococcus aureus [18]): 50 µg/mL | MIC (Staphylococcus aureus [19]): > 100 µg/mL | MIC (Staphylococcus aureus [20]): > 100 µg/mL | MBC (Staphylococcus aureus [21]): 1 µg/mL | MIC (Staphylococcus aureus [22]): 10 µg/mL | MBC (Salmonella typhimurium [23]): 1.6 µg/mL | MBC (Staphylococcus aureus [24]): 1 µg/mL | MBC (Staphylococcus aureus [25]): > 100 µg/mL | MBC (Staphylococcus aureus [26]): > 100 µg/mL
